As usually defined, the IC50 is the concentration that inhibits the measured activity by half.

The values that follow come from patent publication US20240343704A1, “HALO-SUBSTITUTED AMINO PYRIDINE COMPOUNDS AS INHIBITORS OF THE HAEMATOPOIETIC PROGENITOR KINASE 1 (HPK1)” (priority 2021, published 2024).

Assay [1] deals with T1, Recombinant (1-346) HPK1 (h) (Homo sapiens, UniProt Q92918).
T1 construct: Recombinant (1-346) HPK1 (h) is incubated with 8 mM MOPS pH 7.0
T1 sequence (Q92918 1-346): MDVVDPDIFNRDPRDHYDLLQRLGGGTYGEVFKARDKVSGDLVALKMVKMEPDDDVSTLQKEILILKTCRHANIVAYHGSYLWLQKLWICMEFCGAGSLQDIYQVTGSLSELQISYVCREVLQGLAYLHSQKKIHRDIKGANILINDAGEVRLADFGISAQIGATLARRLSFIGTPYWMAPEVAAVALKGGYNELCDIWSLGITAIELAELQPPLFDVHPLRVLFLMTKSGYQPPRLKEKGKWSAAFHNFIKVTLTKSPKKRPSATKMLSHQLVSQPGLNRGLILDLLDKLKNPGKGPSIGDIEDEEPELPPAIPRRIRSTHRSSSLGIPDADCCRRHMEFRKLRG
As to the kind of experiment: HPK1 Human STE Kinase Enzymatic Radiometric Assay. The class given is biochemical. As to conditions: read-out: HPK1 IC50 nM Range*. On the procedure:
A stock solution of 10 mM of test compound is prepared in DMSO. The compound plate was prepared by 3-fold and 9-point serial dilutions. […] The reaction is initiated by The addition of the Mg/ATP mix. After incubation for 40 minutes at RT, the reaction is stopped by the addition of phosphoric acid to a concentration of 0.5%.

Assay [2] concerns the target Lck (h) (Homo sapiens, UniProt P06239). As to the kind of experiment: Lck Human  Kinase Enzymatic Radiometric Assay. Format: biochemical. Conditions: read-out: Lck IC50 nM Range*. An outline of the steps: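 Substrate 33P-incorporation measured by scintillation counting after spotting on P30 filtermat and phosphoric acid washes. Human Lck reacted 40 min at RT in 50 mM Tris pH 7.5 with 10 mM MgAcetate, [gamma-33P]-ATP, 250 uM Cdc2 peptide, 0.1 mM EGTA and 0.1 mM Na3VO4.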

Where only a bound is given, the exact number is not on record here.

Chain of Lck (h) (P06239 whole entry): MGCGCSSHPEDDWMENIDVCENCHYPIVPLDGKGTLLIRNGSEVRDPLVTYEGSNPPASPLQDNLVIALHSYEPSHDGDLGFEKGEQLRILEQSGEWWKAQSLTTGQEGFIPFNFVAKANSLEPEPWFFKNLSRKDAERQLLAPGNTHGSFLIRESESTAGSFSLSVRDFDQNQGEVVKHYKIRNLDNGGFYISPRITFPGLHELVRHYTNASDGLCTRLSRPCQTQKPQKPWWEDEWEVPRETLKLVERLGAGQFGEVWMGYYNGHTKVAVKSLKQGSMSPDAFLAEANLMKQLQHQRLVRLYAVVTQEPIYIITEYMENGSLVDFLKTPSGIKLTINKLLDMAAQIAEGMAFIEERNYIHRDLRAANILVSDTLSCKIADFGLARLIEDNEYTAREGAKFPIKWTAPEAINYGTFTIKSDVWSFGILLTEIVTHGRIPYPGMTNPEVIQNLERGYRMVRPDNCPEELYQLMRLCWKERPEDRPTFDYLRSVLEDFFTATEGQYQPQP

`Nc1nc(F)c(-c2ccc(N3CCCN4CCCC4C3)cc2)cc1-c1ccc2c(c1)CCNC2=O` (centres unmarked) [I-281, 6-(2-amino-6-fluoro-5-(4-(hexahydro-1H-pyrrolo[1,2-a][1,4]diazepin-2(3H)-yl)phenyl)pyridin-3-yl)-3,4-dihydroisoquinolin-1(2H)-one]: the IC50 in assay [1] was 0.1 to 10 nM; in assay [2], above 1000 nM.
The corresponding values for `CC(C)N1CCN(c2ccc(-c3cc(-c4ccc5c(=O)[nH]ccc5c4)c(N)nc3F)cc2)CC1` [I-364, 6-(2-amino-6-fluoro-5-(4-(4-isopropylpiperazin-1-yl)phenyl)pyridin-3-yl)isoquinolin-1(2H)-one] are 0.1 to 10 nM and above 1000 nM.
Take `CCN1CCN(c2ccc(-c3cc(-c4ccc5c(c4)CC(C)(C)NC5=O)c(N)nc3F)cc2)CC1` [I-70, 6-(2-amino-5-(4-(4-ethylpiperazin-1-yl)phenyl)-6-fluoropyridin-3-yl)-3,3-dimethyl-3,4-dihydroisoquinolin-1(2H)-one 2,2,2-trifluoroacetate]: the IC50 in assay [1] is 11 to 100 nM; in assay [2], above 1000 nM.
The corresponding values for `Nc1nc(F)c(-c2ccc(OC3CCN(C(=O)CC4CC4)CC3)cc2)cc1-c1cc2c(cc1F)C(=O)NCC2` [I-323, 6-(2-amino-5-(4-((1-(2-cyclopropylacetyl)piperidin-4-yl)oxy)phenyl)-6-fluoropyridin-3-yl)-7-fluoro-3,4-dihydroisoquinolin-1(2H)-one] are 0.1 to 10 nM and above 1000 nM.
Consider `Nc1nc(F)c(-c2ccc(C3CCOCC3)c([C@@H]3CCCN3)c2)cc1-c1ccc2c(=O)[nH]ccc2c1` [I-370, (S)-6-(2-amino-6-fluoro-5-(3-(pyrrolidin-2-yl)-4-(tetrahydro-2H-pyran-4-yl)phenyl)pyridin-3-y)isoquinolin-1(2H)-one], for which the IC50 is 0.1 to 10 nM in assay [1] and above 1000 nM in assay [2].
The corresponding values for `Nc1nc(F)c(-c2ccc3c(c2)COC2(CCN(CC(F)(F)F)CC2)O3)cc1-c1ccc2c(c1)CCNC2=O` [I-195, 6-(2-amino-6-fluoro-5-(1′-(2,2,2-trifluoroethyl)-4H-spiro[benzo[d][1,3]dioxine-2,4′-piperidin]-6-yl)pyridin-3-yl)-3,4-dihydroisoquinolin-1(2H)-one] are 11 to 100 nM and above 1000 nM.
`CC(C)N1CCC[C@H](Oc2ccc(-c3cc(-c4ccc5c(c4)CCNC5=O)c(N)nc3F)cc2)C1` [I-274, (S)-6-(2-amino-6-fluoro-5-(4-((1-isopropylpiperidin-3-yl)oxy)phenyl)pyridin-3-yl)-3,4-dihydroisoquinolin-1(2H)-one]: the results for the IC50 in assay [1] and in assay [2] were 0.1 to 10 nM and above 1000 nM, respectively.
The corresponding values for `CC(C)N1CCN(c2ccc(-c3cc(-c4cc5c(cc4F)C(=O)NCC5)c(N)nc3Cl)cc2)CC1` [I-209, 6-(2-amino-6-chloro-5-(4-(4-isopropylpiperazin-1-yl)phenyl)pyridin-3-yl)-7-fluoro-3,4-dihydroisoquinolin-1(2H)-one] are 0.1 to 10 nM and above 1000 nM.
As to `Nc1nc(F)c(-c2ccc(C3CCNCC3)cc2)cc1-c1cc2c(cc1F)C(=O)NCC2` [I-238, 6-(2-amino-6-fluoro-5-(4-(piperidin-4-yl)phenyl)pyridin-3-yl)-7-fluoro-3,4-dihydroisoquinolin-1(2H)-one 2,2,2-trifluoroacetate], the IC50 is 0.1 to 10 nM in assay [1] and above 1000 nM in assay [2].
For `CN(C)C1CCN(c2ccc(-c3cc(-c4ccc5c(c4)CCNC5=O)c(N)nc3F)cc2)C1` (centres unmarked) [I-157, 6-(2-amino-5-(4-(3-(dimethylamino)pyrrolidin-1-yl)phenyl)-6-fluoropyridin-3-yl)-3,4-dihydroisoquinolin-1(2H)-one] the same measures were 0.1 to 10 nM and above 1000 nM.
Regarding `COCCN1CCC(c2ccc(-c3cc(-c4ccc5c(c4)CCNC5=O)c(N)nc3F)cc2)CC1` [I-107, 6-(2-amino-6-fluoro-5-(4-(1-(2-methoxyethyl)piperidin-4-yl)phenyl)pyridin-3-yl)-3,4-dihydroisoquinolin-1(2H)-one], the values for the IC50 in assay [1] and in assay [2] were 0.1 to 10 nM and above 1000 nM, respectively.
Turning to `Cc1cc(-c2cc(-c3ccc4c(c3)CCNC4=O)c(N)nc2F)cc2c1CCNC2` [I-431, 6-(2-amino-6-fluoro-5-(5-methyl-1,2,3,4-tetrahydroisoquinolin-7-yl)pyridin-3-yl)-3,4-dihydroisoquinolin-1(2H)-one], the IC50 in assay [1] is 0.1 to 10 nM; in assay [2], above 1000 nM.
For `C[C@H]1CN(C)CCN1c1ccc(-c2cc(-c3ccc4c(c3)CCNC4=O)c(N)nc2F)cc1` [I-282, (S)-6-(2-amino-5-(4-(2,4-dimethylpiperazin-1-yl)phenyl)-6-fluoropyridin-3-yl)-3,4-dihydroisoquinolin-1(2H)-one] the same measures were 0.1 to 10 nM and above 1000 nM.
The corresponding values for `COC1(c2ccc(-c3cc(-c4ccc5c(c4)CCNC5=O)c(N)nc3F)cc2)CCN(C(C)C)CC1` [I-294, 6-(2-amino-6-fluoro-5-(4-(1-isopropyl-4-methoxypiperidin-4-yl)phenyl)pyridin-3-yl)-3,4-dihydroisoquinolin-1(2H)-one] are 0.1 to 10 nM and above 1000 nM.
As for `CC(C)N1CCN(Cc2cccc(-c3cc(-c4ccc5c(c4)CCNC5=O)c(N)nc3F)c2)CC1` [I-330, 6-(2-amino-6-fluoro-5-(3-((4-isopropylpiperazin-1-yl)methyl)phenyl)pyridin-3-yl)-3,4-dihydroisoquinolin-1(2H)-one], the IC50 in assay [1] is 11 to 100 nM; in assay [2] it was above 1000 nM.
The corresponding values for `Nc1nc(F)c(-c2ccc(C3CN(CC(F)F)CCO3)cc2)cc1-c1ccc2c(c1)CCNC2=O` (centres unmarked) [I-103, 6-(2-amino-5-(4-(4-(2,2-difluoroethyl)morpholin-2-yl)phenyl)-6-fluoropyridin-3-yl)-3,4-dihydroisoquinolin-1(2H)-one] are 11 to 100 nM and above 1000 nM.
For `COCCN1C[C@H]2C[C@@]2(c2ccc(-c3cc(-c4ccc5c(c4)CCNC5=O)c(N)nc3F)cc2)C1` [I-140, 6-(2-amino-6-fluoro-5-(4-((1R,5S)-3-(2-methoxyethyl)-3-azabicyclo[3.1.0]hexan-1-yl)phenyl)pyridin-3-yl)-3,4-dihydroisoquinolin-1(2H)-one] the same measures were 0.1 to 10 nM and above 1000 nM.
For `Nc1nc(F)c(-c2ccc(OC3CCNCC3)c(F)c2F)cc1-c1ccc2c(c1)CCNC2=O` [I-148, 6-(2-amino-5-(2,3-difluoro-4-(piperidin-4-yloxy)phenyl)-6-fluoropyridin-3-yl)-3,4-dihydroisoquinolin-1(2H)-one] the same measures were 11 to 100 nM and above 1000 nM.
With `CC(C)N1CCC(c2ccc(-c3cc(-c4cc5c(cc4F)C(=O)NCC5)c(N)nc3F)cc2)CC1` [I-244, 6-(2-amino-6-fluoro-5-(4-(1-isopropylpiperidin-4-yl)phenyl)pyridin-3-yl)-7-fluoro-3,4-dihydroisoquinolin-1(2H)-one], the IC50 in assay [1] was 0.1 to 10 nM; in assay [2], above 1000 nM.
For `COCCN1CC=C(c2ccc(-c3cc(-c4ccc5c(c4)CCNC5=O)c(N)nc3F)cc2)C1` [I-124, 6-(2-amino-6-fluoro-5-(4-(1-(2-methoxyethyl)-2,5-dihydro-1H-pyrrol-3-yl)phenyl)pyridin-3-yl)-3,4-dihydroisoquinolin-1(2H)-one] the same measures were 0.1 to 10 nM and above 1000 nM.
For `CC(C)N1C[C@H]2C[C@@]2(c2ccc(-c3cc(-c4cc(F)c5c(c4)CCNC5=O)c(N)nc3F)cc2)C1` [I-301, 6-(2-amino-6-fluoro-5-(4-((1R,5S)-3-isopropyl-3-azabicyclo[3.1.0]hexan-1-yl)phenyl)pyridin-3-yl)-8-fluoro-3,4-dihydroisoquinolin-1(2H)-one] the same measures were 0.1 to 10 nM and above 1000 nM.
Regarding `Nc1nc(F)c(-c2ccc(OC3CNC3)cc2)cc1-c1ccc2c(c1)CCNC2=O` [I-146, 6-(2-amino-5-(4-(azetidin-3-yloxy)phenyl)-6-fluoropyridin-3-yl)-3,4-dihydroisoquinolin-1(2H)-one], the results for the IC50 in assay [1] and in assay [2] were 11 to 100 nM and above 1000 nM, respectively.
For `CN1CCN(c2ccc(-c3cc(-c4ccc5c(c4)CCNC5=O)c(N)nc3Cl)cc2)CC1` [I-74, 6-(2-amino-6-chloro-5-(4-(4-methylpiperazin-1-yl)phenyl)pyridin-3-yl)-3,4-dihydroisoquinolin-1(2H)-one] the same measures were 11 to 100 nM and above 1000 nM.
For `CN1C[C@@H]2C[C@]2(c2ccc(-c3cc(-c4ccc5c(c4)CCNC5=O)c(N)nc3F)cc2)C1` [I-106, 6-(2-amino-6-fluoro-5-(4-((1S,5R)-3-methyl-3-azabicyclo[3.1.0]hexan-1-yl)phenyl)pyridin-3-yl)-3,4-dihydroisoquinolin-1(2H)-one] the same measures were 0.1 to 10 nM and above 1000 nM.
The corresponding values for `CC(C)(C)OC(=O)N1CCC2(CCc3cc(-c4cc(-c5ccc6c(c5)CCNC6=O)c(N)nc4F)ccc3O2)CC1` [I-175, tert-butyl 6-(6-amino-2-fluoro-5-(1-oxo-1,2,3,4-tetrahydroisoquinolin-6-yl)pyridin-3-yl)spiro[chromane-24′-piperidine]-1′-carboxylate] are 101 to 1000 nM and above 1000 nM.
